Laboratory results as given in US20130053320A1, “TREATMENT OF ANEMIA BY ADNP AND ADNF POLYPEPTIDES” (Ramot at Tel-Aviv University, Ltd., priority 2010, published 2013).

Key:
zebrafish embryos [1] = experiment: Morpholino knockdown in zebrafish embryos, observation of blood and morphology; assay type: in vivo; details: for cardiac edema / smaller head and eyes: MO-injected embryos; for morphology and development: MO-injected embryos vs control; for smaller head and eyes: FIG. 2C; for blood colour: at 72 hpf, vs red blood of control embryos; for blood cells in circulation: starting from 28 hpf, vs control-MO injected embryos
Procedure: (§1) Gene knockdown experiments were performed using morpholino-modified antisense oligonucleotides (MO's, Gene Tools, Philomath, Oreg., USA). MO's were injected into wild type embryos, immediately after fertilization (2 nl, 1-2 mM). This was followed by a daily monitoring of the embryos for 10 days. MO's sequences were chosen through the Gene Tools oligonucleotide design service. A splicing MO, directed to intron3-exon4 boundary, was designed to block adnp1a (adnp1a-MO, 5′-[…]-3′). The efficiency of the adnp1a splicing MO was evaluated by RT-PCR. Translation MO's were designed to block adnp1b, adnp2a and adnp2b (adnp1 b-MO, 5′-[…]-3′; adnp2a-MO: 5′-[…]-3′; adnp2b-MO: 5′-[…]-3′). BLAST analysis was performed to verify that the MO's were not predicted to bind gene sequences other than their targets, and that their target sequence was not conserved among the other zebrafish adnp1 and adnp2 genes. Gene-Tools standard control-MO, which has not been reported to have other targets or generate any phenotypes, was used as a negative control (5-[…]-3′). Injections were repeated in at least 4 independent experiments for each MO.
For adnp2a-MO injected embryos, blood circulation was evaluated at 48 hpf. For the 3 other MO's, circulation was examined at 72 hpf when red blood is easily seen. Based on observation, embryos were divided to have normal blood cells, no blood cells or hypochromic and/or fewer blood cells.

zebrafish embryos [2] = experiment: O-dianisidine staining of Hb in whole MO-injected embryos; assay type: in vivo; details: for Hemoglobin (Hb) staining, Hb content: 48 hpf and 72 hpf; for O-dianisidine staining: 48 hpf, vs control embryos (legend FIG. 2F)
Procedure: as §1
Hb activity was detected in whole embryos by performing o-dianisidine staining as described (Iuchi and Yamamoto, 1983, J Exp Zool 226, 409-417).

MEL cells [3] = experiment: Growth of MEL cells during differentiation (viable cell counts); assay type: cell-based, mouse; details: 2% DMSO vs ND cells
Procedure: FIG. 4: ADNP and ADNP2 are required for mouse erythroid differentiation. (A-C) MEL cells were differentiated with 2% DMSO for 4 days and compared to non-differentiated (ND) cells incubated for the same time period. Results are means±S.E.M analyzed by student's t-test (*p<0.05, **p<0.01, ***p<0.001). (A) The picture depicts the red pellet (Hb) of differentiated (D) cells compared to the white pellet of ND cells. (B) mRNA expression levels of β-globin, band3 and c-kit in D versus ND MEL cells. 4 experiments were performed, each in duplicates. Data is presented in logarithmic scale as fold change from the expression level in the ND state. (C) Growth curves of D and ND MEL cells. Results are % of the number of cells at plating (100%). […] Real-Time PCR analysis determined ADNP, ADNP2, β-globin, band3 and c-kit expression levels. […] Results, means±S.E.M were analyzed using student's t-test (*p<0.05, **p<0.01, ***p<0.001, relative to control cells, transfected with non-specific shRNA/siRNA sequences). (F+G) MEL cells were transfected with ADNP/ADNP2 shRNA/siRNA respectively, and viable cells were counted every 24 hrs during 4 days differentiation process with 2% DMSO. […] Results are presented as % from the number of cells at plating (100%), and analyzed using student's t-test (**p<0.01, relative to number of control cells, transfected with non-specific siRNA or shRNA sequences). […]

MEL cells [4] = experiment: MEL cell erythroid differentiation, marker mRNA by Real-Time PCR; assay type: cell-based, mouse
Procedure: MEL cells were a gift from Prof. N. Shaklai (Tel Aviv University, Israel). Cells were cultured at 37° C. in 5% CO2 incubator in RPMI-1640 medium supplemented with 10% fetal calf serum, 2 mM L-glutamine, 100 U/ml penicillin, 0.1 mg/ml streptomycin and 12.5 U/ml nystatin (Biological Industries, Beit Haemek, Israel). To induce erythroid differentiation, 2% DMSO (v/v, Sigma, St. Louis, Mo., USA) was added for 4 days.
2 ADNP shRNA clones (sh68 and sh71, Sigma) were used for mouse ADNP (NM_009628) silencing in MEL cells, as before (Mandel et al., 2008, J Mol Neurosci 35, 127-141). […] For mouse ADNP2 (NM_175028) silencing, a mixture of 2 stealth small interfering RNA (siRNA) duplexes (Invitrogen, Carlsbad, Calif., USA) was used.
Transfections were performed using Lipofectamine-2000 (Invitrogen). 6 hours after transfection, 2% DMSO was added to the cells for 4 days in order to induce erythroid differentiation. On the 4th day, cells were harvested, RNA was extracted and expression levels of ADNP, ADNP2, band3, β-globin, Brg1 and c-kit were evaluated.
Total RNA from MEL cells was extracted by the RNeasy Plus Mini Kit (Qiagen, Hilden, Germany). RNA integrity was determined by fractionation on 1% agarose gel and staining with ethidium bromide. RNA quantity (OD260) was determined by NanoDrop spectrophotometer (NanoDrop Technologies, Wilmington, Del., USA).
Samples with the same amount of total RNA were used to synthesize single-strand cDNA employing the Applied Biosystems High Capacity cDNA Reverse Transcription Kit (Applied Biosystems, Foster City, Calif., USA) and random hexamers primers as before (Dresner et al., 2010, supra). Primer pairs (see Table 1) were designed using the primer 3 web interface (website: frodo.wi.mit.edu/primer3/) and synthesized by Sigma-Genosys (The Woodlands, Tex., USA). To avoid amplification of contaminating genomic DNA, primers were designed to exon-exon junction. […]

zebrafish embryos [5] = experiment: Whole-mount in situ hybridization (WMISH) of hematopoietic markers in MO-injected embryos; assay type: in vivo
Procedure: as §1
Transcripts of sci (NM_213237), lmo2 (NM_131111), gata1 (NM_131234), band3 (NM_198338), embryonic α-globin 1 (NM_182940), lys-C(NM_139180), l-plastin (NM_131320), ikaros (NM_130986), c-myb (NM_131266), irx7 (NM_131881), flk1 (NM_131472), cmlc2 (NM_131329), adnp1a (NM_001080015), adnp1b (XM—002666474), adnp2a (NM_001098265) and adnp2b (NM_001080013) were detected by WMISH using digoxygenin (DIG) labeled antisense RNA probes at a concentration of 1 ng/μl. Transcription of RNA probes was performed from pGEM-T Easy plasmids linearized before the coding sequence, using SP6 or T7 RNA polymerases (DIG RNA labeling kit, Roche Applied Science, Penzberg, Germany). Embryos at different developmental stages were fixed overnight in 4% paraformaldehyde and stored in 100% methanol. WMISH was performed as describe (Ziv et al., 2005, supra). Fixed embryos were then placed in 70% glycerol for observation and photography using a dissecting stereoscope (SZX12, Olympus) equipped with digital camera (DP70, Olympus). In each experiment, embryos hybridized with the same probe were stained under the same conditions and for the same time period using identical microscopic and camera settings.

[6] = 2% DMSO for 4 days vs non-differentiated cells

Row | Compound | cardiac edema (zebrafish embryos [1]) | morphology and development (zebrafish embryos [1]) | smaller head and eyes (zebrafish embryos [1]) | blood colour (zebrafish embryos [1]) | blood cells in circulation (zebrafish embryos [1]) | Hemoglobin (Hb) staining, Hb content (zebrafish embryos [2]) | O-dianisidine staining (zebrafish embryos [2]) | also measured
1 | adnp1a-MO: splicing morpholino antisense oligonucleotide to intron3-exon4 boundary of zebrafish adnp1a, 5′-TAGTCCTGCAACATTTGAGAAACCA-3′ (all phosphorodiamidate morpholino (PMO)) | visible in some embryos | developmental delay, distorted tail morphology | 73 % of embryos | hypochromic | fewer blood cells in circulation | significant reduction in Hb content | Reduced staining | 
2 | adnp2b-MO: translation-blocking morpholino to zebrafish adnp2b, 5′-ACCTTTTACTGGAAACTGGTACATG-3′ (all phosphorodiamidate morpholino (PMO)) |  | no developmental delay or major morphological changes |  |  |  |  | Reduced staining | morphology (zebrafish embryos [1]; injection of higher doses of MO): distorted morphology
3 | adnp1b-MO: translation-blocking morpholino to zebrafish adnp1b, 5′-TTGTTCACTGGGAGTTGAAACATTC-3′ (all phosphorodiamidate morpholino (PMO)) | visible in some embryos | developmental delay, distorted tail morphology | 92 % of embryos | hypochromic | fewer blood cells in circulation | significant reduction in Hb content | Reduced staining | 
4 | C[S+](C)[O-] [DMSO] |  |  |  |  |  |  |  | growth rate of differentiating cells (MEL cells [3]): significant reduction; c-kit expression lower (MEL cells [4]; 2% DMSO for 4 days vs ND cells): 200 times; increase of band3 mRNA expression (MEL cells [4]; [6]): 10000 fold; increase of β-globin mRNA expression (MEL cells [4]; [6]): 1000 fold
5 | adnp2a-MO: translation-blocking morpholino to zebrafish adnp2a, 5′-CACTGGAATCTGATACATTTTGCTC-3′ (all phosphorodiamidate morpholino (PMO)) | noticeable cardiac edema | no effect on the overall morphology |  |  |  | totally negative | No staining is visible | blood cells visible (zebrafish embryos [1]; between 33-48 hpf): no blood cells were evident; ectopic expression of band3 along the tail and yolk sinus (zebrafish embryos [5]; 4 dpf): 100 % of embryos; ectopic expression of gata1 along the tail and yolk sinus (zebrafish embryos [5]; 4 dpf): 86 % of embryos; gata1 expression normal in the ICM (zebrafish embryos [5]; 17-19 hpf): 100 % of embryos; lmo2 expression intact in the ICM (zebrafish embryos [5]; 17-19 hpf): 100 % of embryos; scl expression intact in the ICM (zebrafish embryos [5]; 17-19 hpf): 100 % of embryos; band3 expression almost absent (zebrafish embryos [5]; 28 hpf): 83 % of embryos; embryonic α-globin 1 expression significantly reduced (zebrafish embryos [5]; 28 hpf): 96 % of embryos; gata1 expression dramatically reduced (zebrafish embryos [5]; 28 hpf): 90 % of embryos; l-plastin expression intact (zebrafish embryos [5]; 28 hpf): 100 % of embryos; lys-C expression intact (zebrafish embryos [5]; 28 hpf): 100 % of embryos; band3 expression almost absent (zebrafish embryos [5]; 48 hpf): 97 % of embryos
